# Assay results reported in patent US8580854B2, “Methods of suppression of rage gene expression and rage triggered inflammatory genes by selected age-inhibitors” (City of Hope, priority 2005, dated 2013).
# Columns and labels:
# hemoglobin = hemoglobin (Homo sapiens, UniProt P68871+P69905); details: synergistic with 2,3-bisphosphoglycerate; cited from earlier work
# [1] = system: rats fed a diet rich in cholesterol; details: cited from earlier work
# RAGE [2] = experiment: Immunohistochemical staining of renal RAGE protein expression; format: in vivo, rat; details: diabetic rats, increasing concentrations; 25 and 50 mg/L best inhibitory effects
# Text: (§1) Formalin-fixed […] embedded kidney sections ([…]) were mounted on slides and stained with 6D12 monoclonal anti-CML-AGE, polyclonal rabbit anti-RAGE and polyclonal goat anti-nitrotyrosine antibodies as described before (25). […] Similarly, RAGE protein expression in the glomeruli was visibly higher in diabetic rats compared with non-diabetic animals (FIG. 5).
# RAGE [3] = experiment: S100b-induced RAGE mRNA expression on THP-1 monocytes (RT-PCR); format: cell-based, human; details: THP-1, pre-treated 1 hr with 25-200 ug/ml, S100b 4 hr; statistically significant at 100 and 200 ug/ml
# Protocol: (§2) Human THP-1 monocytic cells were obtained from the American Type Culture Collection and cultured as described (27) in RPMI 1640 medium supplemented with 10% fetal calf serum (FCS), glutamine, HEPES, streptomycin/penicillin ([…]/100 units/ml), 50 uM-mercaptoethanol, and 5.5 mM D-glucose in a 5% CO2 incubator at 37° C. THP-1 cells (5×10^5 cells/ml) in 4 ml of medium were pre-treated with various concentrations of LR-90 (0, 25, 50, 100 and 200 ug/ml; prepared in 20 mM stock solution in DMSO) for 1 hr. Control cells received DMSO vehicle only. Thereafter, S100b ([…]) was added and cells re-incubated for 4 hr. The cell suspension was then centrifuged at 200 g, the supernatant was removed and the cell pellet was frozen at −70° C. for subsequent RNA extraction.
# (§3) RNA Extraction and Relative RT-PCR-Total RNA was isolated by the RNA-STAT-60 reagent method (Teltest, Friendswood, Tex.), and […] was used for the RT reaction using a Gene Amp RNA PCR kit. […] PCR products were fractionated on 2.5% agarose gels, photographed using Alpha Imager 2000, and analyzed with Quantity 1 software (Bio-Rad Laboratories, Hercules, Calif.). Results were expressed as fold stimulation over control after normalizing with paired 18S RNA gene.
# (§4) Data Analyses. […] Group comparisons were analyzed using one-way ANOVA and subsequent post-hoc analysis by Tukey's test. […]
# [4] = system: NADPH oxidase (gp91^phox subunit); experiment: S100b-induced NADPH oxidase mRNA expression on THP-1 monocytes (RT-PCR); format: cell-based, human; details: THP-1, pre-treated 1 hr with 25-200 ug/ml, S100b 4 hr; statistically significant at 100 and 200 ug/ml
# Protocol: as §2, §3, §4
# MCP-1 [5] = experiment: Secreted MCP-1 levels of THP-1 cells by ELISA; format: cell-based, human; details: THP-1 supernatants
# Protocol: Measurement of MCP-1 levels by ELISA. Supernatants of THP-1 cells (5×10^5 cells/ml) cultured in RPMI 1640 medium containing 2% FBS for 18 hrs under control or LR-90 treated conditions were used to assay secreted MCP-1 levels using the Quantikine ELISA kit. Medium alone without cells was incubated under the same conditions and used as blank control for the ELISA.
# (§5) Data Analyses. Statistical analyses were performed using Prism software (GraphPad, San Diego, Calif., USA). Unless otherwise indicated, data are presented as Means±Std. Group comparisons were analyzed using one-way ANOVA and subsequent post-hoc analysis by Tukey's test. A P value of less than 0.05 was considered statistically significant.
# STZ-diabetic rats [6] = experiment: Body weight, glycemic control and albuminuria in STZ-induced diabetic rats given LR-90 in drinking water for 32 weeks; format: in vivo, rat
# MCP-1 [7] = experiment: S100b-induced MCP-1 mRNA expression on THP-1 monocytes (RT-PCR); format: cell-based, human; details: THP-1, pre-treated 1 hr with 25-200 ug/ml, S100b 4 hr; statistically significant at 100 and 200 ug/ml
# Protocol: as §2, §3, §4
# kidneys of diabetic rats = experiment: Kidney histology (PAS and Trichrome staining) in STZ-diabetic rats; format: in vivo, rat
# Protocol: (§6) At the end of study, the rats were weighed and anaesthetized with isofluorane and blood was drawn by heart puncture and transferred into heparinized and non-heparinized vacutainer tubes on ice. These blood samples were later centifuged for plasma and serum collection respectively, and stored at −70° C. until the time of analysis. Rats were killed by over-anesthetization and cardiac puncture and the kidneys were removed immediately, weighed, decapsulated and rinsed in PBS buffer. Sections of the kidneys were stored in 10% NBF for subsequent microscopic examinations and immunohistochemistry.
# STZ-diabetic rats [8] = experiment: Body weight, glycemic control and albuminuria in STZ-induced diabetic rats given LR-90 in drinking water for 32 weeks; format: in vivo, rat; remark: listed apart in the source
# Protocol: (§7) Animal studies were carried out in compliance with policies outlined in “The Guide for the care and Handling of Laboratory Animals” (NIH Publication No. 85-23), which have been approved by the City of Hope National Medical Center Animal Care Committee. Induction of diabetes by STZ and all other procedures were according to the previously published article on LR-90 (25), except that in the present study the diabetic rats under treatment were randomized in 5 groups of ten each: one diabetic control group (0 mg/L), one group receiving 2.5 mg/L, one group receiving 10 mg/L, a third group receiving 20 mg/L and a fourth group receiving 50 mg/L of LR-90 in drinking water (FIG. 1). Both plasma glucose and body weight were checked before administration of the drug, and no differences were detected among the two non-diabetic groups and five diabetic treatment groups. All animals were housed individually and were given free access to food (Purina rodent chow 5001, Ralston Purina, Richmond, Ind., USA) and water. Glycemic control and body weights were monitored periodically. In order to limit hyperglycemia and ensure that animals maintained body weight, diabetic animals received 3 IU of ultralente insulin (Humulin U, Eli Lilly, Indianapolis, Ind., USA) two to three times per week. The study was carried out over 32 weeks.
# (§8) Blood (from the tail vein) and urine samples were collected from rats for glycemic control analysis and albuminuria measurements. Plasma glucose was measured using a glucose analyzer machine (YSI 2300 STAT, Yellowsprings, Ohio, USA). HbAlc concentration was measured by HPLC (BioRad DIAMAT, Hercules, Calif., USA). Total plasma triglycerides and cholesterol concentrations were quantified at the end of the study using the Vitros 250 Chemistry System (Johnson & Johnson, Rochester, N.Y., USA). Progression of renal dysfunction was assessed by measuring urinary albumin-to-creatinine ratio (ACR). Rats were housed in metabolic cages (Nalge, Rochester, N.Y., USA) for 24 hr and urine was collected in a collection beaker with several drops of toluene to inhibit microbial growth. Urinary albumin and creatinine concentrations were quantified immunologically using the Nephrat/Creatinine Companion kits (Exocell), and the ACR value was calculated for each rat.
# as §6
# as §5, with “Statistical” for “Data Analyses. Statistical”
# COX-2 = experiment: S100b-induced COX-2 mRNA expression on THP-1 monocytes (RT-PCR); format: cell-based, human; details: THP-1, pre-treated 1 hr with 25-200 ug/ml, S100b 4 hr; statistically significant at 100 and 200 ug/ml
# Protocol: as §2, §3, §4
# THP-1 cells = experiment: Cell viability test on THP-1 cells (cell counter, Trypan Blue); format: cell-based, human
# Protocol: Cell Viability Test—THP-1 cells were seeded onto 6-well plates at a concentration of ˜5×10^5/ml in RPMI medium containing 10% FCS as above, and then incubated with various concentrations of LR-90 or control medium alone for 24 hr at 37° C., 5% CO2. After incubation, overall cell counts were measured using a cell counter (Coulter Z1 Cell and Particle Counter, Beckman Coulter Inc., Fullerton, Calif.), and the number of viable cells determined by hemocytometer counts of Trypan Blue—impermeable cells.
# STZ-diabetic rats [9] = experiment: Total plasma triglycerides and cholesterol in STZ-diabetic rats; format: in vivo, rat
# Protocol: Animal studies were carried out in compliance with policies outlined in “The Guide for the care and Handling of Laboratory Animals” (NIH Publication No. 85-23), which have been approved by the City of Hope National Medical Center Animal Care Committee. Induction of diabetes by STZ and all other procedures were according to the previously published article on LR-90 (25), except that in the present study the diabetic rats under treatment were randomized in 5 groups of ten each: one diabetic control group (0 mg/L), […] (FIG. 1). Both plasma glucose and body weight were checked before administration of the drug, and no differences were detected among the two non-diabetic groups and five diabetic treatment groups. All animals were housed individually and were given free access to food (Purina rodent chow 5001, Ralston Purina, Richmond, Ind., USA) and water. Glycemic control and body weights were monitored periodically. In order to limit hyperglycemia and ensure that animals maintained body weight, diabetic animals received 3 IU of ultralente insulin (Humulin U, Eli Lilly, Indianapolis, Ind., USA) two to three times per week. The study was carried out over 32 weeks.
# as §8
# non-diabetic rats = experiment: Non-diabetic control rats given LR-90 in drinking water for 32 weeks; format: in vivo, rat
# Protocol: as §7, §8
# At the end of study, the rats were weighed and anaesthetized with isofluorane and blood was drawn by heart puncture and transferred into heparinized and non-heparinized vacutainer tubes on ice. These blood samples were later centifuged for plasma and serum collection respectively, and stored at −70° C. until the time of analysis. […]
# Statistical analyses were performed using Prism software (GraphPad, San Diego, Calif., USA). […] Group comparisons were analyzed using one-way ANOVA and subsequent post-hoc analysis by Tukey's test. […]
# CML-AGE = experiment: Immunohistochemical staining of renal CML-AGE accumulation; format: in vivo, rat; details: diabetic rats, increasing concentrations; 25 and 50 mg/L best inhibitory effects
# Text: as §1
# [10] = 25 mg per liter drinking water daily
# [11] = marked difference at 25 and 50 mg/L
# [12] = 2.5 mg per liter drinking water daily
# [13] = 10 mg per liter drinking water daily
# [14] = 50 mg per liter drinking water daily
# [15] = streptozotocin-induced diabetic rats, summary statement
# [16] = non-diabetic rats, 50 mg per liter drinking water daily
# Sequence of hemoglobin (P69905 2-142 limits assumed): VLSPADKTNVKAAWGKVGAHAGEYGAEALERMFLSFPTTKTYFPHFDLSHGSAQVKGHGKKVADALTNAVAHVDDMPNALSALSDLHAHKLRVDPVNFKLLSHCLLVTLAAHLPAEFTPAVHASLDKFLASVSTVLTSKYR
# Sequence of hemoglobin (P68871 2-147 limits assumed): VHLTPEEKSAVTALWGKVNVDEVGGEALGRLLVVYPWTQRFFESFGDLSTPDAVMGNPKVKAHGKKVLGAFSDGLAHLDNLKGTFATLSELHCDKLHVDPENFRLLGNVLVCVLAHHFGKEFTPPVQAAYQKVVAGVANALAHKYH
compound,measurement,setting,value
N-4-(nitrophthalimido)phenoxyisobutyric acid [LR-16],effect on oxygen affinity of hemoglobin molecules,hemoglobin,allosteric effector
same,low-density lipoproteins (LDL),[1],lower
same,serum cholesterol,[1],lower
CC(C)(Oc1ccc(NC(=O)Nc2ccc(Cc3ccc(NC(=O)Nc4ccc(OC(C)(C)C(=O)O)cc4)c(Cl)c3)cc2Cl)cc1)C(=O)O [LR-90],RAGE protein expression in the glomeruli,RAGE [2],visibly reduced
same,S100b-induced RAGE mRNA expression,RAGE [3],profoundly suppressed
same,S100b-induced NADPH oxidase mRNA expression,[4],profoundly suppressed
same,"MCP-1 protein expression (secreted, ELISA)",MCP-1 [5],inhibited MCP-1 protein expression in a concentration-dependent manner
same,HbA1c,STZ-diabetic rats [6]; [10],2.9 ± 0.4 %
same,Plasma Glucose,STZ-diabetic rats [6]; [10],26.7 ± 2.4 mmol/L
same,ACR (urinary albumin-to-creatinine ratio),"STZ-diabetic rats [6]; 25 mg per liter drinking water daily, p < 0.05 vs. diabetic rats",1.75 ± 1.43 mg/mg
same,rise in ACR,STZ-diabetic rats [6]; 25 and 50 mg/L doses statistically significant vs. untreated diabetic animals,inhibited the rise in ACR in almost dose-dependent manner
same,S100b-induced MCP-1 mRNA expression,MCP-1 [7],profoundly suppressed
same,cell infiltration in the renal interstitium,kidneys of diabetic rats,prevented cell infiltration
same,mesangial expansion and basement membrane thickening of the kidneys,kidneys of diabetic rats,prevented mesangial expansion and basement membrane thickening
same,collagen deposition and tubular degeneration in the kidney glomeruli (Trichrome staining),kidneys of diabetic rats; [11],prevented collagen deposition and tubular degeneration
same,levels of PAS-positive materials in kidney glomeruli,kidneys of diabetic rats; [11],reduced the levels of PAS-positive materials
same,ACR (urinary albumin-to-creatinine ratio),STZ-diabetic rats [8]; [12],2.35 ± 1.96 mg/mg
same,HbA1c,STZ-diabetic rats [8]; [12],2.6 ± 0.6 %
same,Plasma Glucose,STZ-diabetic rats [8]; [12],29.9 ± 5.9 mmol/L
same,ACR (urinary albumin-to-creatinine ratio),STZ-diabetic rats [8]; [13],2.60 ± 1.74 mg/mg
same,HbA1c,STZ-diabetic rats [8]; [13],3.0 ± 0.4 %
same,Plasma Glucose,STZ-diabetic rats [8]; [13],30.8 ± 2.9 mmol/L
same,HbA1c,STZ-diabetic rats [8]; [14],3.0 ± 0.2 %
same,Plasma Glucose,STZ-diabetic rats [8]; [14],31.6 ± 3.9 mmol/L
same,ACR (urinary albumin-to-creatinine ratio),"STZ-diabetic rats [8]; 50 mg per liter drinking water daily, p < 0.05 vs. diabetic rats",1.39 ± 1.17 mg/mg
same,effect on HbAlc concentration,STZ-diabetic rats [8]; various doses,no affect
same,effect on plasma glucose concentration,STZ-diabetic rats [8]; various doses,no affect
same,S100b-induced COX-2 mRNA expression,COX-2,profoundly suppressed
same,cell viability (Trypan blue staining),THP-1 cells,viable
same,cell counts after incubation,"THP-1 cells; THP-1, same concentrations as in S100b experiments, 24 hr",normal and statistically similar to the untreated cells
same,reduction in triglyceride concentration,"STZ-diabetic rats [9]; diabetic rats, 25 mg/L",≥ 60%
same,reduction in triglyceride concentration,"STZ-diabetic rats [9]; diabetic rats, 50 mg/L",≥ 60%
same,cholesterol concentration relative to non-diabetic animals,"STZ-diabetic rats [9]; diabetic rats, all concentrations tested with the exception of 10 mg/L",nearly normalized
same,reduction in triglyceride concentration,"STZ-diabetic rats [9]; diabetic rats, lowest concentration (25 mg/L) tested",~50%
same,reduction of increased concentration of cholesterol,STZ-diabetic rats [9]; [15],more than 50%
same,reduction of increased concentration of triglycerides,STZ-diabetic rats [9]; [15],more than 50%
same,effect on lipid metabolism,non-diabetic rats; non-diabetic animals,no effect
same,ACR (urinary albumin-to-creatinine ratio),non-diabetic rats; [16],0.42 ± 0.32 mg/mg
same,HbA1c,non-diabetic rats; [16],1.2 ± 0.1%
same,Plasma Glucose,non-diabetic rats; [16],8.9 ± 1.0 mmol/L
same,CML-AGE accumulation in kidney glomeruli and cortical tubules,CML-AGE,visibly reduced
